US20020049313A1, “Method for introducing foreign material into higher eukaryotic cells” (priority 1994, published 2002)
Entries after “also recorded” stand apart in the source; their conditions may differ.

Tests used:
[1] = test system: NF-KB; assay: NF-KB luciferase reporter activation in A549 NF-KB cells; format: cell-based, human; details: 11 h, LPS 2.5 μg/ml, PMA 10^−8M
Description: The plasmid pNF-KB-Luc responding to NF-KB was constructed as a derivative of the plasmid pTK3kbB described by Boehmelt et al., 1992. In order to do this, pTK3kbB was cut with XhoI and NcoI in order to remove the majority of the sequence coding for CAT, treated with Klenow enzyme and ligated with a Klenow-treated HindIII/SspI fragment of PRSVL, containing the luciferase sequence (De Wet et al., 1987). This yielded the plasmid p3K-Luc which contains a triple binding site for the transcription factor NF-KB plus the luciferase sequence, driven by a thymidine kinase (TK) TATA box.
(§1) In order to prepare the clonal cell lines, containing the reporter plasmid pNF-KB-Luc or pIL-6-Luc, the human lung cancer cell line A549 (ATCC CCL 185) was used as starting material. The plasmids were co-transfected with the neomycin-phosphotransferase-expression plasmid designated pmuatt (a pUC19 plasmid containing the TKneo-sequence; Grosveld et al., 1982) using the transfectam method (Behr et al., 1989) and selected for cells which are resistant to 400 μg/ml of G418 (Sigma). Clonal derivatives which expressed luciferase after induction by PMA were identified and expanded.
(§2) The luciferase activity was determined as described in WO 93/07283.
(§3) Stable clones of the lung epithelial carcinoma cell line A549 were produced, which contained pNF-KB-luc or pIL-6-luc as reporter gene construct. […]

[2] = test system: IL-6 promoter (NF-IL-6/NF-KB); assay: IL-6 promoter luciferase reporter activation in A549 IL-6 cells; format: cell-based, human; details: A549/NF-IL-6 luciferase; 10 h; PMA 10^−8M, virus 10^4 Particle/cell
Description: The construct described by Matsusaka et al., 1993 was used, which contains the luciferase sequence driven by the IL-6 promoter.
as §1, §2, §3
In order to determine the time sequence of the NF-IL-6-and NF-KB-activation, the cells of the two cell lines which were found in the above quantities in a 24 well plate or 6 well plate were each treated with 10^4 adenovirus dl1014 virus particles per cell (which corresponded to 4×10^8 virus particles for each well of the A549 NF-KB cells or 4×10^9 virus particles for each well of the A549 IL-6 cells). […]

[3] = test system: primary human fibroblasts; assay: Luciferase gene expression after adenovirus-aided transferrinfection of primary human fibroblasts; format: cell-based; details: for improvement in gene expression: absence of E1B 19K, dexamethasone 10 μM, ibuprofen 100 μM, 5,8,11-eicosatriynoic acid 30 μM; for Induction (-fold) of luciferase expression: 3 μM dexamethasone, 24 hours after transfection
Procedure: Samples of biotinylated, psoralen/UV-inactivated adenovirus dl1014 (8 μl, 1×10^12 particles/ml) were diluted in 150 μl of HBS and mixed with 1 μg of StpL in […] of HBS for 30 minutes at ambient temperature. Aliquots of 6 μg of plasmid DNA (in the case of mixtures of pCMVL-DNA and another plasmid the ratio was 5:1) were diluted in 100 μl of HBS and then mixed with the adenovirus/StpL solution for 30 minutes at ambient temperature. Finally, a 100 μl aliquot of HBS, containing 5 μg of TfpL, was added to each sample, followed by 30 minutes' incubation at ambient temperature.
After surgical removal, skin biopsies were added to 4° C. DMEM containing 10% heat-inactivated FCS, 2 mM glutamine and gentamycin. The biopsies were carefully cut up in a tissue culture device using forceps and a surgical blade in a laminar air current in sterile 6 cm plastic dishes. Then 3 ml of DMEM, containing 20% FCS, 2 mM glutamine and antibiotics were added and the culture was placed in an incubator at 37° C. After 10 days the medium was replaced by DMEM containing 10% FCS. Then the medium was changed a further 2 times a week. 4 weeks after the start of cultivation the cells which had grown out of the tissue fragments were trypsinised and plated out into new culture dishes for transfection.
as §2
First of all, a series of experiments were carried out intended to establish whether the expression of certain adenovirus genes is capable of intensifying gene expression after transferrinfection. A defined quantity of the luciferase expression plasmid pCMVL (5 μg) was mixed with various plasmid DNA (1 μg in each), incorporated in TfpL/StpL/adenovirus transfection complexes (total volume 500 μl) and applied to primary human fibroblasts (50 μl of complex were applied to 2×10^4 cells per well in a 24-well plate, corresponding to 2.5×10^4 virus particles per cell, the measurements being carried out three times. In FIG. 4 “minus” denotes pSP65; the test DNA is specified in each case). The luciferase activity obtained was measured 48 to 72 hours after transfection. […] The E1 region contains two main gene functions, E1A and E1B. (The E1A products have the effect of separating E2F from the Rb protein and on the other hand they modulate the transcription activity of numerous cellular and adenovirus promoters. The main transcription-transactivator function is contained in the 13S gene product. The 1B gene codes for two main functions: the E1B 55K gene product binds p53 and changes its function. It is assumed that the 19K E1B gene product acts underneath p53 in order to block the apoptotic response).
In order to do this, transfection complexes containing pCMVL plus the plasmid pSP65, or the plasmids which contained the sequence for Bcl-2, E1A or E1B 19K (the quantities of reporter plasmid pCMVL and the relevant test plasmid were 5 μg and 1 μg, respectively, as in the previous Example), with virus particle numbers of 3×10^4 (FIG. 5A), 10^4 (FIG. 5B) or 3×10^3 (FIG. 5C) per cell were applied to primary fibroblasts and the luciferase activity was measured over a period of time. The transfections were carried out as described in the preceding Examples, the cells being given 6, 18 or 60 μl of transfection complex per well, containing 2×10^4 fibroblasts.
(In these experiments, the cells in a well were given 18 μl of transfection complex.) From day 10 onwards, the culture medium was replaced with fresh medium daily; the idea of this procedure was to lower the concentrations of toxins by changing the medium.

`CCCCCCCCCCCCCC(=O)O[C@@H]1[C@@H](C)[C@@]2(O)[C@@H](C=C(CO)C[C@]3(O)C(=O)C(C)=C[C@@H]23)[C@@H]2C(C)(C)[C@]12OC(C)=O` [PMA, Phorbolmyristylacetate] was tested, and the “Increase (-fold)” value [1] was 2.0 (11 h) -fold and the “Increase (-fold)” value [2] was 2.0 (10 h) -fold.

With `CCCCCCCCC#CCC#CCC#CCCCC(=O)O` [5,8,11-eicosatriynoic acid] the “improvement in gene expression” value [3] was “only dexamethasone brings about a substantial improvement” and the “effect on gene expression” value ([3]; presence of E1B 19K, dexamethasone 10 μM, 5,8,11-eicosatriynoic acid 30 μM) was “synergistic effect”.

For `CC(C)Cc1ccc(C(C)C(=O)O)cc1` (stereo not drawn) [ibuprofen, Ibuprofen], the “improvement in gene expression” value [3] was “only dexamethasone brings about a substantial improvement”.

`C[C@@H]1C[C@H]2[C@@H]3CCC4=CC(=O)C=C[C@]4(C)[C@@]3(F)[C@@H](O)C[C@]2(C)[C@@]1(O)C(=O)CO` [Dexamethasone, dexamethasone] was tested, and the “Induction (-fold) of luciferase expression” value ([3]; pCMVL/pCMV19K) was 2.71 -fold and the “Induction (-fold) of luciferase expression” value ([3]; pCMVL/pSP65 (absence of pCMV19K)) was 1.65 -fold.

In the case of `CC(=O)Oc1ccccc1C(=O)O` [aspirin, acetylsalicylic acid], the “effect on gene expression (luciferase) over time” value ([3]; 10 μM dexamethasone or 2 mM Aspirin from 2 hours after transfection, with and without E1B 19K) is reported as “increase in gene expression both in the presence and in the absence of E1B 19K; also recorded: less marked than that of dexamethasone” and the “interaction with the E1B 19K gene in increase of gene expression” value ([3]; 10 μM dexamethasone or 2 mM Aspirin, pCMV19K co-transfected) is reported as “synergistic effect”.
